Assay: Inhibition of Staphylococcus aureus DHFR

Compared with `CCOc1cc(Cc2cnc(N)nc2N)cc(OC)c1OC`, `CCCOc1cc(Cc2cnc(N)nc2N)cc(OC)c1OC` is 1.8-fold lower in Ki: 2.5 nM for the first, 1.4 nM for the second.

Compared with `C=CCc1cc(Cc2cnc(N)nc2N)cc(OC)c1OC`, `C/C=C/c1cc(Cc2cnc(N)nc2N)cc(OC)c1OC` is 2-fold lower in Ki: 2.8 nM for the first, 1.4 nM for the second. The second binds more tightly here.

Assay: Antibacterial activity against Staphylococcus aureus

`C=CCOc1cc(Cc2cnc(N)nc2N)cc(OC)c1OC` and `CCCc1cc(Cc2cnc(N)nc2N)cc(CCC)c1OC` are within 1.5-fold of each other in Ki: 3 nM for the first, 3.2 nM for the second.

— BindingDB's records for doi:10.1021/jm00128a043 (Wellcome Research Laboratories, 1989)
